Experimental findings from patent publication EP2998000A1, “COMBINATION THERAPY FOR CANCER” (priority 2014, dated 2016) are described below.

In series [1] the test system is Subcutaneous flank CT26 tumours. Description: murine model of intratumoural bacterial effects on chemotherapy.
The test system of series [2] is tumour cells. To be noted: for Cytotoxicity E. coli: change of drug cytotoxicity on tumour cells after co-incubation with E. coli, bacteria removed by filtration, MTS, Up/Down/NC.
The next series has as its system 4T1 Luc cells. Description: tumour cell survival assay, drug co-incubated with E. coli, supernatant applied to 4T1 Luc cells. To be noted: gemcitabine 10 µM co-incubated with E. coli at different cfu/ml, Figure 1b. The series is classed as cell-based, mouse.
Series [3] relates to tumour cells. Description: in vitro cytotoxicity screen of drugs co-incubated with L. welshimeri (tumour cell survival assay, MTS). To be noted: change of drug cytotoxicity on tumour cells after co-incubation with L. welshimeri, bacteria removed by filtration, Up/Down/NC.

The structures appear in SMILES notation.

Take `Nc1ccn([C@@H]2O[C@H](CO)[C@@H](O)C2(F)F)c(=O)n1` [Gemcitabine]: the tumour volume entry in series [1] (gemcitabine + bacteria group compared with gemcitabine alone group, various time points, gemcitabine 60 mg/kg i.p., E. coli i.t.) is given as “Significantly increased”. Also, the “median survival post Day 0” value in series [1] (gemcitabine + bacteria group: E. coli i.t., gemcitabine 60 mg/kg i.p.) is reported as 17 days; in series [1] (gemcitabine alone group: PBS i.t., gemcitabine 60 mg/kg i.p.), 28 days. Also, the “Cytotoxicity E. coli” value in the series on tumour cells [2] was “decreasing and Down”. In addition, the “cytotoxicity after incubation with heat-inactivated lysate (or intact bacteria)” value in the series on tumour cells [2] (gemcitabine 10 µM, E. coli heat-inactivated at 95 °C, Figure 2) is on record as “no reduction in cytotoxicity”. Further, the “efficacy (tumour cell survival)” value in the series with 4T1 Luc cells is “decreased”.
As to `Nc1nc(=O)[nH]cc1F` [5-fluorocytosine], the “Cytotoxicity E. coli” value with tumour cells [2] is reported as “Up”.
As to `O=c1[nH]c(=O)n(C2CCCO2)cc1F` (centres unmarked) [Tegafur], the “Cytotoxicity E. coli” value with tumour cells [2] is “increasing and Up”.
`COc1cccc2c1C(=O)c1c(O)c3c(c(O)c1C2=O)C[C@@](O)(C(=O)CO)C[C@@H]3O[C@H]1C[C@H](N)[C@H](O)[C@H](C)O1` [Doxorubicin]: the “Cytotoxicity E. coli” value in the series with tumour cells [2] is recorded as “Down”.
Turning to `Nc1nc(Cl)nc2c1ncn2[C@H]1C[C@H](O)[C@@H](CO)O1` [Cladribine], the “Cytotoxicity E. coli” value in the series on tumour cells [2] is listed as “Down”. Besides, in the series on tumour cells [3], the “Cytotoxicity L. welshimeri” value is reported as “Down”.
For `O=C1c2c(O)ccc(O)c2C(=O)c2c(NCCNCCO)ccc(NCCNCCO)c21` [Mitoxantrone], the “Cytotoxicity E. coli” value in the series on tumour cells [2] is listed as “Down”.
For the molecule `COc1cccc2c1C(=O)c1c(O)c3c(c(O)c1C2=O)C[C@@](O)(C(C)=O)C[C@@H]3O[C@H]1C[C@H](N)[C@H](O)[C@H](C)O1` [Daunorubicin], the “Cytotoxicity E. coli” value with tumour cells [2] is “Down”. Further, in the series on tumour cells [3], the “Cytotoxicity L. welshimeri” value is reported as “Down”.
On to `CC1(C)CCC2=C(O1)c1ccccc1C(=O)C2=O` [B-Lapachone], for which the “Cytotoxicity E. coli” value in the series on tumour cells [2] is “Down”.
The same measure, in the same setting: for `COc1cc([C@@H]2c3cc4c(cc3[C@@H](O[C@@H]3O[C@@H]5CO[C@@H](C)O[C@H]5[C@H](O)[C@H]3O)[C@H]3COC(=O)[C@H]23)OCO4)cc(OC)c1OP(=O)(O)O` [Etoposide phosphate] the value was “decreasing and Down”; for `Nc1ncnc2c1ncn2[C@@H]1O[C@H](CO)[C@@H](O)[C@@H]1O` [Vidarabine], “decreasing and Down”.
Take `CC(=O)[C@]1(O)Cc2c(O)c3c(c(O)c2[C@@H](O[C@H]2C[C@H](N)[C@H](O)[C@H](C)O2)C1)C(=O)c1ccccc1C3=O` [Idarubicin]: the “Cytotoxicity E. coli” value with tumour cells [2] was “Down”.
As to `NC(=O)c1cc(N2CC2)c([N+](=O)[O-])cc1[N+](=O)[O-]` [CB1954], the “median survival post Day 0” value turned out to be 26 days in series [1] (CB1954 + bacteria group: E. coli i.t., CB1954 20 mg/kg i.p.) and 8 days in series [1] (CB1954 alone group: PBS i.t., CB1954 20 mg/kg i.p.). For the same molecule, the “Cytotoxicity E. coli” value in the series with tumour cells [2] was “Up”. In the series on tumour cells [3], the “Cytotoxicity L. welshimeri” value is on record as “Up”.
Take `CC1=CC(=O)c2ccccc2C1=O` [Menadione]: the “Cytotoxicity E. coli” value in the series on tumour cells [2] was “Down”.
On to `Nc1nc(F)nc2c1ncn2[C@@H]1O[C@H](COP(=O)(O)O)[C@@H](O)[C@@H]1O` [Fludarabine de phosphate], for which, in the series on tumour cells [2], the “Cytotoxicity E. coli” value is given as “Up”. Besides, the “Cytotoxicity L. welshimeri” value with tumour cells [3] was “Up”.
`OC[C@H]1O[C@@H](n2cnc3c(S)ncnc32)C[C@@H]1O` [6-Mercaptopurine-2’-deoxyriboside]: the “Cytotoxicity E. coli” value in the series on tumour cells [2] was “Up”.
